Measurements as given in ChEMBL document CHEMBL1909629, “Discovery of novel 3,5-disubstituted indole derivatives as potent inhibitors of Pim-1, Pim-2, and Pim-3 protein kinases” (Bioorg Med Chem Lett, 2011).

How the values were obtained:
[1] = target: Serine/threonine-protein kinase pim-1 (Homo sapiens, UniProt P11309); assay: Inhibition of PIM1 using BAD peptide as substrate preincubated for 15 mins measured after 60 to 100 mins by luminescence assay
[2] = target: Serine/threonine-protein kinase pim-3 (Homo sapiens, UniProt Q86V86); assay: Inhibition of PIM3 using BAD peptide as substrate preincubated for 15 mins measured after 60 to 100 mins by luminescence assay
[3] = target: Serine/threonine-protein kinase pim-2 (Homo sapiens, UniProt Q9P1W9); assay: Inhibition of PIM2 using BAD peptide as substrate preincubated for 15 mins measured after 60 to 100 mins by luminescence assay
Chain of Serine/threonine-protein kinase pim-2 (Q9P1W9 whole entry): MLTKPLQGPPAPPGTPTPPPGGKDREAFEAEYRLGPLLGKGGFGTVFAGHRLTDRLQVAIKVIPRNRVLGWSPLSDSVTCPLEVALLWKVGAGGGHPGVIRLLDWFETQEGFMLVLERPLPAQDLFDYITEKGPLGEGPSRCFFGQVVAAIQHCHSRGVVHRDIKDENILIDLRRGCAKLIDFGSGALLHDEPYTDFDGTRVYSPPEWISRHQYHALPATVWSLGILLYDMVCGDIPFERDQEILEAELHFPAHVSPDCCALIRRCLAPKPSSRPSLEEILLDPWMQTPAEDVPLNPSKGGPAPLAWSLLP

[4] = Inhibition of PDGFR
[5] = target: T1, Receptor-type tyrosine-protein kinase FLT3 (Homo sapiens, UniProt P36888); assay: Inhibition of FLT3
T1 sequence (P36888 whole entry): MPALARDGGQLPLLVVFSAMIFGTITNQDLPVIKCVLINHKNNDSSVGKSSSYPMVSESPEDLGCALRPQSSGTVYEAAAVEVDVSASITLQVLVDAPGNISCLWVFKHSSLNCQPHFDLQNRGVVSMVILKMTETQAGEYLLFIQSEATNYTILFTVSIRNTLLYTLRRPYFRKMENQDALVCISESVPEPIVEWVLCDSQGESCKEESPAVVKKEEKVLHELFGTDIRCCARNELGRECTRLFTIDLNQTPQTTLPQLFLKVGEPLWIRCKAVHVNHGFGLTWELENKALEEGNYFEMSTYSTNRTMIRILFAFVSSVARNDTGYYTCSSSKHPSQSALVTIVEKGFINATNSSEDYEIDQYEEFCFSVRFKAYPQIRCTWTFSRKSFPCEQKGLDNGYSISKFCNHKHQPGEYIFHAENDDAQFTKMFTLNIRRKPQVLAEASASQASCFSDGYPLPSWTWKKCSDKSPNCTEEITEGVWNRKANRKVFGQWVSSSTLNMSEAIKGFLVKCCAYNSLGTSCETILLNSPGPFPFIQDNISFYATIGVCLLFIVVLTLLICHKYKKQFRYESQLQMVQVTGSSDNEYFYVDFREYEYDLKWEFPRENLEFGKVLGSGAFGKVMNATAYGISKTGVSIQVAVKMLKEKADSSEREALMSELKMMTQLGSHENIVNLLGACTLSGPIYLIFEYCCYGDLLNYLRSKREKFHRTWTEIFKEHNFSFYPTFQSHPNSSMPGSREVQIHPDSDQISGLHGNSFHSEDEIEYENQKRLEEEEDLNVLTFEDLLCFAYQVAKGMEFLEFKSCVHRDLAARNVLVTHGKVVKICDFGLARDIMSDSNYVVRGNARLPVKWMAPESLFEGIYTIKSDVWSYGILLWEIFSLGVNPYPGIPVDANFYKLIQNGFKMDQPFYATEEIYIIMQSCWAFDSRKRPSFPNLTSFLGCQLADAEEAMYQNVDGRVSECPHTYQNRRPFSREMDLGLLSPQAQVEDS

[6] = target: Mast/stem cell growth factor receptor Kit (Homo sapiens, UniProt P10721); assay: Inhibition of cKIT
Chain of Mast/stem cell growth factor receptor Kit (P10721 whole entry): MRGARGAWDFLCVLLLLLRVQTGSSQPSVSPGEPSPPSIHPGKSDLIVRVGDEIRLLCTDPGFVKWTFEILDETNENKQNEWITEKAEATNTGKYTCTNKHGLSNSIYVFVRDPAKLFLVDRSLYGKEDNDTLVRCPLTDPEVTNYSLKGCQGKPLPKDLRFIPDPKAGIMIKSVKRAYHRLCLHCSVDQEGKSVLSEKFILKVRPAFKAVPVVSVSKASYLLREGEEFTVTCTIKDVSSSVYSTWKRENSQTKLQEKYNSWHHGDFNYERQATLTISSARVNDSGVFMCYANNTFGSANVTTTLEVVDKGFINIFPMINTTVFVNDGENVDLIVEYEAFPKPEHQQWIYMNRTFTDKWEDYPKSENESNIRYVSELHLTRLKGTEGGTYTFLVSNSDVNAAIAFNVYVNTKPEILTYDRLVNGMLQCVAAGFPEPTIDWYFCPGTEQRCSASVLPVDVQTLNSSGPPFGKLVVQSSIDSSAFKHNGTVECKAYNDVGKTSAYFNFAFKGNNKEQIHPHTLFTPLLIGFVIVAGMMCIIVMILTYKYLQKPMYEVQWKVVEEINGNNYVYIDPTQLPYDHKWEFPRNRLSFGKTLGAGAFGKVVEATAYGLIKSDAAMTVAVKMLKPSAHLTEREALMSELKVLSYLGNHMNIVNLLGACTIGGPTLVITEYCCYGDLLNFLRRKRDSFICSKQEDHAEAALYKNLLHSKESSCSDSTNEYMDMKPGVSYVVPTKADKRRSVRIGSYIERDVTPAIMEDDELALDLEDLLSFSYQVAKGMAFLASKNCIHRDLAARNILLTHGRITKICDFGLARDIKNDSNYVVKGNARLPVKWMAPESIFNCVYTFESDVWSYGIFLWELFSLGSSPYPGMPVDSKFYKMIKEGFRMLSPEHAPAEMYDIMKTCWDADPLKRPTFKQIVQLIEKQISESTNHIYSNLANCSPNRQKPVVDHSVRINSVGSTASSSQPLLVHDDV

[7] = target: Vascular endothelial growth factor receptor 2 (Homo sapiens, UniProt P35968); assay: Inhibition of KDR
Chain of Vascular endothelial growth factor receptor 2 (P35968 whole entry): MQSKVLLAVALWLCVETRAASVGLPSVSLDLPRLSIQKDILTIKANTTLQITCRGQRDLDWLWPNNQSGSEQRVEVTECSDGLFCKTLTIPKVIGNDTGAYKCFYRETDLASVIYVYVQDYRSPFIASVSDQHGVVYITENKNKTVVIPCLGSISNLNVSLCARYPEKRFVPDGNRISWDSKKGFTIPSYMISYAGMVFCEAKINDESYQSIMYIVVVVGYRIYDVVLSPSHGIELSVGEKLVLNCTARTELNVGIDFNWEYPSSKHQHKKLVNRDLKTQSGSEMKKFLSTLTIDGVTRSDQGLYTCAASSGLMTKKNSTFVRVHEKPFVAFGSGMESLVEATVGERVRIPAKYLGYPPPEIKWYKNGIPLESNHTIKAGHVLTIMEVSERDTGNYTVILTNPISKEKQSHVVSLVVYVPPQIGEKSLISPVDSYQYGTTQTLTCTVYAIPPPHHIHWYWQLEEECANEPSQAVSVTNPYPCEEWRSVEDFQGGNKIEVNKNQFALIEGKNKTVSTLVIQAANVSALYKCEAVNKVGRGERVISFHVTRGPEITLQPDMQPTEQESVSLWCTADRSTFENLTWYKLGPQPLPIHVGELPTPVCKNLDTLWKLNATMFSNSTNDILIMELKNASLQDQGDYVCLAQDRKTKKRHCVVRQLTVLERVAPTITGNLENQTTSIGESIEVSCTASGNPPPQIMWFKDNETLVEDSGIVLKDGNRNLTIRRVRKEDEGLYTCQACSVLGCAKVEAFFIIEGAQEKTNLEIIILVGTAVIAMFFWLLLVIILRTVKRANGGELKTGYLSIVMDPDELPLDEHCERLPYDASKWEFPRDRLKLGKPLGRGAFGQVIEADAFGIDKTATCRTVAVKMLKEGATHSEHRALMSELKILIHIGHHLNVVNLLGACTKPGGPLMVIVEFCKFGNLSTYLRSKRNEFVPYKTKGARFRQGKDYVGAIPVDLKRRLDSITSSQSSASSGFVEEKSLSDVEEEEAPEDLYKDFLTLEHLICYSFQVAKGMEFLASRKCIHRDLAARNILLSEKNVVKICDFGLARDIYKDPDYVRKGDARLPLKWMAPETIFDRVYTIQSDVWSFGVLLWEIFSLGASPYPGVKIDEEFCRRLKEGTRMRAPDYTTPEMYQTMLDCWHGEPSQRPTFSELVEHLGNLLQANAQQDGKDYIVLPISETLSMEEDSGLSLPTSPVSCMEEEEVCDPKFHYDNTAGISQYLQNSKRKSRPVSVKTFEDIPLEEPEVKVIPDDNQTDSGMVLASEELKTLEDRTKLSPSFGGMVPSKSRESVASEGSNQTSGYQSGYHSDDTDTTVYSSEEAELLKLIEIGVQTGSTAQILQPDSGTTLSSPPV

Chain of Serine/threonine-protein kinase pim-1 (P11309 whole entry): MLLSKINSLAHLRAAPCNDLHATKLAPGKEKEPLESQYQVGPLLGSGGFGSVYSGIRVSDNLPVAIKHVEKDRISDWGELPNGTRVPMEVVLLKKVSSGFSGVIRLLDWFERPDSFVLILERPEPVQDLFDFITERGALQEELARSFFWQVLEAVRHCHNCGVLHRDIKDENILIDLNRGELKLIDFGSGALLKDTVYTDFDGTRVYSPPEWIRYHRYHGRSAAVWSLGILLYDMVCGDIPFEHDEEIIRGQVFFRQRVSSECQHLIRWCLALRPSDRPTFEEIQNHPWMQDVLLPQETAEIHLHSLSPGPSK

SMILES	IC50 [1]	IC50 [2]	IC50 [3]	IC50 [4]	IC50 [5]	IC50 [6]	IC50 [7]
c1ncc(-c2ccc3[nH]cc(-c4ccc(N5CCNCC5)cc4)c3c2)cn1	2600 nM	3300 nM	> 25000 nM				
c1ccc(-c2ccc3c(-c4ccc(N5CCNCC5)cc4)n[nH]c3n2)cc1	1700 nM	7400 nM	7200 nM				
COc1ccc(-c2ccc3c(-c4ccc(N5CCNCC5)cc4)n[nH]c3n2)cc1	4900 nM	12800 nM	> 25000 nM				
c1cc(-c2ccc3c(-c4ccc(N5CCNCC5)cc4)n[nH]c3n2)ccn1	2500 nM	5800 nM	> 25000 nM				
Nc1ccc(-c2ccc3c(-c4ccc(N5CCNCC5)cc4)n[nH]c3n2)cn1	15000 nM	12000 nM	> 25000 nM				
NS(=O)(=O)c1ccc(-c2ccc3c(-c4ccc(N5CCNCC5)cc4)n[nH]c3n2)cc1	11000 nM	10000 nM	> 25000 nM				
c1cncc(-c2ccc3[nH]cc(-c4ccc(N5CCNCC5)cc4)c3c2)c1	192 nM	490 nM	15000 nM				
c1cc(-c2ccc3[nH]cc(-c4ccc(N5CCNCC5)cc4)c3c2)ccn1	2800 nM	5700 nM	> 25000 nM				
c1ccc(-c2ccc3[nH]cc(-c4ccc(N5CCNCC5)cc4)c3c2)nc1	2100 nM	14000 nM	> 25000 nM				
c1cnc(-c2ccc3[nH]cc(-c4ccc(N5CCNCC5)cc4)c3c2)cn1	530 nM	960 nM	13600 nM				
Nc1ccc(-c2c[nH]c3ccc(-c4cnccn4)cc23)c(F)n1	250 nM	310 nM	5000 nM				

Stronger by IC50 [1], values ahead:

IC50 [1]	IC50 [2]	IC50 [3]	IC50 [4]	IC50 [5]	IC50 [6]	IC50 [7]	SMILES
30 nM	58 nM	283 nM	987 nM	111 nM	1110 nM	4760 nM	Oc1ccc(-c2ccc3c(-c4ccc(N5CCNCC5)cc4)c[nH]c3n2)cc1
9 nM	12 nM	39 nM	6 nM	4 nM	7 nM	18 nM	Oc1ccc(-c2ccc3c(-c4ccc(N5CCNCC5)cc4)n[nH]c3n2)cc1
4 nM	22 nM	42 nM		> 25000 nM	> 25000 nM	> 25000 nM	Oc1ccc(-c2ccc3c(-c4ccc(N5CCNCC5)cc4)c[nH]c3c2)cc1
170 nM	1800 nM	20000 nM					Nc1cc(-c2ccc3c(-c4ccc(N5CCNCC5)cc4)n[nH]c3n2)ccn1
110 nM	260 nM	650 nM					c1cc(-c2ccc3c(-c4ccc(N5CCNCC5)cc4)n[nH]c3n2)c2cc[nH]c2c1
< 2 nM	5 nM	83 nM					Nc1ccc(-c2c[nH]c3ccc(-c4cncc(O[C@H]5CC[C@H](N)CC5)n4)cc23)c(F)n1
< 2 nM	4 nM	61 nM					Nc1ccc(-c2c[nH]c3ccc(-c4cncc(N5CCNCC5)n4)cc23)c(F)n1
< 2 nM	3 nM	81 nM					Nc1ccc(-c2c[nH]c3ccc(-c4cncc(N5CCCC(N)C5)n4)cc23)c(F)n1 (stereo unspecified)
< 2 nM	< 2 nM	56 nM					C[C@H](N)COc1cncc(-c2ccc3[nH]cc(-c4ccc(N)nc4F)c3c2)n1
< 2 nM	5 nM	26 nM					CC[C@H](N)COc1cncc(-c2ccc3[nH]cc(-c4ccc(N)nc4F)c3c2)n1
< 2 nM	6 nM	72 nM					CC(C)[C@H](N)COc1cncc(-c2ccc3[nH]cc(-c4ccc(N)nc4F)c3c2)n1
< 2 nM	10 nM	122 nM					CC(C)(C)[C@H](N)COc1cncc(-c2ccc3[nH]cc(-c4ccc(N)nc4F)c3c2)n1
< 2 nM	< 2 nM	10 nM					Nc1ccc(-c2c[nH]c3ccc(-c4cncc(OC[C@@H](N)c5ccccc5)n4)cc23)c(F)n1
< 2 nM	5 nM	20 nM					Nc1ccc(-c2c[nH]c3ccc(-c4cncc(OC[C@H](N)c5ccccc5)n4)cc23)c(F)n1
